B1: BDNF: brain-derived neurotrophic factor, neurotrophin specific for TrkB (protein)
chain: HSDPARRGELSVCDSISEWVTAADKKTAVDMSGGTVTVLEKVPVSKGQLKQYFYETKCNPMGYTKEGCRGIDKRHWNSQCRTTQSYVRALTMDSKKRIGWRFIRIDTSCVCTLTIKRGR
B2: HGF: hepatocyte growth factor, complete hepatocyte mitogen used as comparator (protein, UniProt Q08048 33-495; Q08048 496-728, looked up)
Hepatocyte growth factor …: QKKRRNTLHEFKKSAKTTLTKEDPLLKIKTKKVNSADECANRCIRNRGFTFTCKAFVFDKSRKRCYWYPFNSMSSGVKKGFGHEFDLYENKDYIRNCIIGKGGSYKGTVSITKSGIKCQPWNSMIPHEHSFLPSSYRGKDLQENYCRNPRGEEGGPWCFTSNPEVRYEVCDIPQCSEVECMTCNGESYRGPMDHTESGKTCQRWDQQTPHRHKFLPERYPDKGFDDNYCRNPDGKPRPWCYTLDPDTPWEYCAIKTCAHSAVNETDVPMETTECIQGQGEGYRGTSNTIWNGIPCQRWDSQYPHKHDITPENFKCKDLRENYCRNPDGAESPWCFTTDPNIRVGYCSQIPKCDVSSGQDCYRGNGKNYMGNLSKTRSGLTCSMWDKNMEDLHRHIFWEPDASKLNKNYCRNPDDDAHGPWCYTGNPLIPWDYCPISRCEGDTTPTIVNLDHPVISCAKTKQLR
Hepatocyte growth factor beta …: VVNGIPTQTTVGWMVSLKYRNKHICGGSLIKESWVLTARQCFPARNKDLKDYEAWLGIHDVHERGEEKRKQILNISQLVYGPEGSDLVLLKLARPAILDNFVSTIDLPSYGCTIPEKTTCSIYGWGYTGLINADGLLRVAHLYIMGNEKCSQHHQGKVTLNESELCAGAEKIGSGPCEGDYGGPLICEQHKMRMVLGVIVPGRGCAIPNRPGIFVRVAYYAKWIHKVILTYKL

Legend:
[1] = tested on: mouse passaged primary human hepatocytes; experiment: EdU incorporation in mouse passaged primary human hepatocytes (mpPHH); assay type: cell-based; settings: 20 ng/ml each, 4 hours (FIG. 19E-F)
Protocol: Mouse passaged primary human hepatocytes. Mouse-passaged primary human hepatocytes (mpPHHs) were collected as previously described (Michailidis et al., Proc Natl Acad Sci USA. 2020; 117(3): 1678-1688) and cultured in hepatocyte culture media (CC-3198, Lonza, Basel, Switzerland) in collagen-coated chamber slides. Three days before treatment, mpPHH were incubated in William's E media (with L-glutamine). Vehicle, NTF3, BDNF, or HGF (20 ng/ml each) were diluted in William's E (without L-glutamine) and EdU (EdU Cell Proliferation kit, Alexa Flour 555, Thermo Fisher Scientific, Waltham, MA; C10638) was added to each well. mpPHH were incubated for 4 hours and the experiment terminated by fixing the mpPHH in 4% paraformaldehyde/PFA and permeablized with Triton X-100. Click-iT™ EdU staining was then performed according to the manufacturer's instructions. mpPHH were mounted with Flouromount G and imaged with Nikon confocal microscope. 5-15 images per treatment per experiment were randomly taken and EdU positive nuclei quantified.
EdU incorporation and imaging in HDO and mpPHH. A chamber slide was pre-chilled on ice and coated with Matrigel®. Chamber slide was then incubated for 3 min at 37° C. to solidify and organoids plated in 0.02% Matrigel®/complete media into coated chamber slides. Organoids were grown in complete organoid growth media (OGM) for approximately 4 days followed by incubation in organoid differentiation media (ODM) for another 4 days. Organoids were changed to William's E medium 1 day prior to experiment. Vehicle or NTF3, BDNF, HGF (20 ng/ml final concentration each) or Taletrectinib (Fisher Scientific, Waltham, MA; 502030245, final concentration 10 nM) were diluted in William's E (without L-glutamine) and added to organoids. CLICK-iT™ EdU (EdU final concentration […] incubated together with the vehicle, NTF3, BDNF or HGF). […] Five to fifteen images of random high-power fields were obtained per experiment per treatment and EdU+/Hoechst 33342+ nuclei versus all Hoechst 33342+ nuclei quantified.

[2] = tested on: hepatocytic differentiated human ductal organoids; experiment: EdU incorporation in hepatocytic differentiated human ductal organoids (HDO); assay type: cell-based; settings: for EdU+ cells compared to vehicle only: 20 ng/ml, 6 hours, William's E without L-glutamine (FIG. 19A-B)
Protocol: Human ductal organoids. The normal human liver tissue was obtained through the Cooperative Human Tissue Network (CHTN) at Vanderbilt University Medical Center. The liver was cut into very small pieces in liver digestion medium (Gibco, Waltham, MA; 17703-034). The cell suspension was filtered through a 100-μm cell strainer. The flow through was then centrifuged for 2 min at 100 g, 4° C., and the cell pellet resuspended in ice-cold DMEM (Gibco, Waltham, MA; 11885-084, supplemented by 5% FBS) and centrifuged for 2 min at 300 g. The cell pellet was gently resuspended in Matrigel® (Corning, Corning, NY; 356231) and a […] dome plated in a 24-well plate. The plate was incubated for 10-15 min at 37° C. After solidifying, complete HepatiCult™ Organoid Initiation Medium (OIM) (STEMCELL Technologies, Vancouver, Canada; 100-0384) was added. For passaging, the Matrigel dome was dissociated using TrypLE (Thermo Fisher Scientific, Waltham, MA; 12604013) and incubated at 37° C. for 5 mins. Organoids were washed by resuspending in advanced DMEM/F12 and consecutive resuspension of the organoid pellet. Organoids were resuspended at a 1:10 dilution in Matrigel® and cultured in complete HepatiCult™ Organoid Growth Medium (OGM) (STEMCELL Technologies, Vancouver, Canada; 100-0385) for organoid expansion. For hepatocytic differentiation of hepatic ductal organoids, culture medium was changed to complete HepatiCult™ Organoid Differentiation Medium (ODM) (STEMCELL Technologies, 100-0383) 4 days after passaging. Vehicle, NTF3, BDNF, HGF (20 ng/ml final concentration) or Taletrectinib (Fisher Scientific, Waltham, MA; 502030245, final concentration 10 nM) or torin2 (Fisher Scientific, Waltham, MA; s2817, final concentration 25 nM) were diluted in William's E (without L-glutamine) and added to organoids.
EdU incorporation and imaging in HDO and mpPHH. A chamber slide was pre-chilled on ice and coated with Matrigel®. Chamber slide was then incubated for 3 min at 37° C. to solidify and organoids plated in 0.02% Matrigel®/complete media into coated chamber slides. Organoids were grown in complete organoid growth media (OGM) for approximately 4 days followed by incubation in organoid differentiation media (ODM) for another 4 days. Organoids were changed to William's E medium 1 day prior to experiment. Vehicle or NTF3, BDNF, HGF (20 ng/ml final concentration each) or Taletrectinib (Fisher Scientific, Waltham, MA; 502030245, final concentration 10 nM) were diluted in William's E (without L-glutamine) and added to organoids. CLICK-iT™ EdU (EdU final concentration […] incubated together with the vehicle, NTF3, BDNF or HGF). After 6 hours, organoids were fixed with 4% paraformaldehyde and permeabilized with 0.5% Triton-X 100. Further processing was performed according to CLICK-ITT EdU manufacturer's instructions. mpPHHs were seeded on collagen coated chamber slides and grown in complete hepatocyte medium (Lonza, Basel, Switzerland). Prior to EdU incorporation assays, mpPHHs were cultured in William's E medium. Vehicle or NTF3, BDNF, HGF (20 ng/ml final concentration each) or Taletrectinib (Fisher Scientific, Waltham, MA; 502030245, final concentration 10 nM) were diluted in William's E (without L-glutamine) and added to mpPHHs. Organoids were imaged in PBS in chamber slides, mpHHs were mounted with fluoromount. Five to fifteen images of random high-power fields were obtained per experiment per treatment and EdU+/Hoechst 33342+ nuclei versus all Hoechst 33342+ nuclei quantified.

AML12 cells = experiment: Cell proliferation assay (CellTiter-Glo) in AML12 cells; assay type: cell-based, mouse; settings: NTF3 20 ng/ml, AML12 (FIG. 9E-F)
Protocol: Cell lines. Human HepG2 (ATCC HB-8065) were maintained in MEM media with 10% FBS and the mouse hepatocyte cell line AML12 (ATCC, Manassas, VA; CRL-2254) in DMEM/F12 media supplemented with dexamethasone (40 ng/ml) and Insulin-Transferrin-Selenium (Gibco, Waltham, MA; 41400045), containing 10% FBS and 1% penicillin and streptomycin. JS1 (RRID: CVCL_C7PL), LX2 (RRID: CVCL_5792, MilliporeSigma, Burlington, MA; SCC064) and TWNT4 (RRID: CVCL_W296) cells were cultured in DMEM supplemented with 10% FBS. 293T cells (ATCC, Manassas, VA; CRL-3216) were cultured in DMEM supplemented with 10% FBS.
Cell proliferation assays. Primary mouse hepatocytes, HepG2 or AML 12 cells were grown in opaque-walled 96-well plates. NTF3 (final concentration 20 ng/ml) (STEMCELL Technologies, Vancouver, Canada; cat. 78074) and/or Loxo-195 (final concentration 5 nM) (Selleckchem, Houston, TX; S8636) were added into complete growth media without L-glutamine. Primary mouse hepatocytes were also grown in serum-free William's E media without supplements. Cells were analyzed by CellTiter-Glo® (Promega G7570, Madison, WI) which detects the number of viable cells on day 0 to day 5 by on detection systems GloMax® (Promega) or Bioteck Synergy H1 (Agilent, Santa Clara, CA). Mouse recombinant HGF (Abcam, Cambridge, UK; ab281797) was added to cell culture media at a final concentration 5 ng/ml. […]

Row | Molecule | EdU+ nuclei compared to vehicle only [1] | EdU+ cells compared to vehicle only [2] | EdU+ cells compared to vehicle alone, taletrectinib experiment ([2]; NTF3 20 ng/ml (FIG. 19C-D)) | cell proliferation (AML12 cells)
1 | NTF3: neurotrophin-3, recombinant protein; HSC-derived hepatocyte mitogen, ligand of TRKA, TRKB, TRKC | increased EdU+ nuclei | significantly increased EdU+ cells | significant increase of EdU+ cells | greatly stimulated cell proliferation
2 | B1 | increased EdU+ nuclei | significantly increased EdU+ cells |  | 
3 | B2 | increased EdU+ nuclei | significantly increased EdU+ cells |  | 

Source: patent US20250346643A1, “TROPOMYOSIN KINASE RECEPTOR (TRK) LIGANDS AS THERAPEUTICS TO SUPPORT LIVER REGENERATION” (Vanderbilt University, priority 2024, published 2025)
